Test results from US20140099662A1, “PHOTOTOXICITY TEST METHOD” (SUMITOMO CHEMICAL COMPANY, LIMITED, priority 2011, published 2014).
≈ marks a conversion by molar mass, not a printed value. Like-named read-outs stand apart in the source and are kept apart here.

Tests used:
[1] = test system: human retinal pigment epithelial cells; test: in vitro
Description: (§1) The human retinal pigment epithelial cells prepared in Example 2 were treated with 0.25% trypsin to collect the cells from a culture dish. The collected cells were seeded in a 96-well culture dish previously coated with Matrigel at 100000 or 120000 cells per well and then cultured in an incubator at 37° C. and 5% CO2.
(§2) After the cultivation for 2 hours to 4 hours, the medium was removed from the 96-well culture dish using an aspirator and Earle's Balanced Salt Solution (EBSS) was then added to the 96-well culture dish at 150 μl per well to wash the cells.
(§3) After the 96-well culture dish was shaded by wrapping with aluminum foil, irradiation of the culture dish shaded with aluminum foil with light was carried out using a light irradiation device (a solar simulator SXL-2500V2: SERIC LTD.) for 40 minutes (light irradiation dose of about 5 J/cm^2). Immediately after light irradiation, the 96-well culture dish was washed twice with 150 μl of a DMEM/F12 culture liquid and a DMEM/F12 culture liquid supplemented with N2-supplement was then added to the 96-well culture dish at 100 μl per well, followed by cultivation overnight.
(§4) After the cultivation, the medium was removed from the 96-well culture dish and a previously prepared mixed solution of equal amounts of DMEM/F12 culture liquid and Cell titer Glo reaction liquid was then added to the 96-well culture dish at 100 μl per well.
(§5) The obtained 96-well culture dish was allowed to stand at room temperature for 30 minutes while shaking in a shaded state with aluminum foil and 95 μl of culture contained in the 96-well culture dish was then transferred to a white 96-well examining dish. Next, the amount of luminescence of the culture contained in the 96-well examining dish (the amount of luminescence has a correlation with the cell survival rate) was measured by EnVision Multilabel Reader (PerkinElmer). The 50% inhibitory concentration (IC50) of a test substance to the human retinal pigment epithelial cells was calculated from the measured values and the calculated value was considered as a value showing cytotoxicity (an index value correlated therewith).
(§6) Unlike Example 3, irradiation with light was carried out using a light irradiation device (a solar simulator SXL-2500V2: SERIC LTD.) for 40 minutes without wrapping the 96-well culture dish with aluminum foil (light irradiation dose is about 5 J/cm^2 by calculation based on light irradiation strength at 360 nm). Immediately after light irradiation, the 96-well culture dish was washed twice with 150 μl of a DMEM/F12 culture liquid and a DMEM/F12 culture liquid supplemented with N2-supplement was then added to the 96-well culture dish at 100 μl per well, followed by cultivation overnight.
(§7) The above-described PIF value (Photo Irritation Facor value) was obtained based on the 50% inhibitory concentration (IC50) calculated in Example 3 and Example 4 (that is, a value obtained by dividing the cytotoxicity IC50 value in human retinal pigment epithelial cells exposed to a test substance (a (shaded) control for non-light Irradiation) by the cytotoxicity IC50 value in human retinal pigment epithelial cells cultured under simulated solar light irradiation within 24 hours after the onset of exposure to the test substance). […] When the value (PIF value) was greater than 5, the test substance was evaluated as phototoxicity-positive.

[2] = test system: Balb/c 3T3 cells; test: in vitro
Description: (§8) “Balb/c 3T3 cells” are connective tissue cells and fibroblasts.
(§9) The “Balb/c 3T3 cells” cultured in DMEM medium supplemented with 10% bovine serum and L-glutamine were treated with 0.25% trypsin to collect the cells from a culture dish. The collected cells were seeded in a 96-well culture dish previously coated with a 0.1% gelatin solution at 10000 cells per well and then cultured in DMEM medium supplemented with 10% bovine serum and […] in an incubator at 37° C. and 5% CO2 overnight.
(§10) After the cultivation, the medium was removed from the 96-well culture dish using an aspirator and Earle's Balanced Salt Solution (EBSS) was then added to the 96-well culture dish at 150 μl per well to wash the cells.
(§11) After the 96-well culture dish was shaded by wrapping with aluminum foil, irradiation of the culture dish shaded with aluminum foil with light was carried out using a light irradiation device (a solar simulator SXL-2500V2: SERIC LTD.) for 40 minutes (the light irradiation dose is about 5 J/cm^2 by calculation based on irradiation strength at 360 nm). Immediately after light irradiation, the 96-well culture dish was washed twice with 150 μl of a DMEM/F12 culture liquid and a DMEM/F12 culture liquid supplemented with N2-supplement was then added to the 96-well culture dish at 100 μl per well, followed by cultivation overnight.
as §4
(§12) The obtained 96-well culture dish was allowed to stand at room temperature for 30 minutes while shaking in a shaded state with aluminum foil and 95 μl of culture contained in the 96-well culture dish was then transferred to a white 96-well examining dish.
(§13) Next, the amount of luminescence of the culture contained in the 96-well examining dish (the amount of luminescence has a correlation with the cell survival rate) was measured by EnVision Multilabel Reader (PerkinElmer). The 50% inhibitory concentration (IC50) of a test substance to the human retinal pigment epithelial cells was calculated from the measured values and the calculated value was considered as a value showing cytotoxicity (an index value correlated therewith).
(§14) The “Balb/c 3T3 cells” cultured in DMEM medium supplemented with 10% bovine serum and L-glutamine were treated with 0.25% trypsin to collect the cells from a culture dish. The collected cells were seeded in a 96-well culture dish previously coated with a 0.1% gelatin solution at 10000 cells per well and then cultured in DMEM medium supplemented with 10% bovine serum and L-glutamine in an incubator at 37° C. and 5% CO2 overnight.
(§15) Unlike Comparative Example 1, light irradiation was carried out using a light irradiation device (a solar simulator SXL-2500V2: SERIC LTD.) for 40 minutes without wrapping the 96-well culture dish with aluminum foil (light irradiation dose is about 5 J/cm^2 by calculation based on light irradiation strength at 360 nm). Immediately after light irradiation, the 96-well culture dish was washed twice with 150 μl of a DMEM/F12 culture liquid and a DMEM/F12 culture liquid supplemented with N2-supplement was then added to the 96-well culture dish at 100 μl per well, followed by cultivation overnight.
(§16) The obtained 96-well culture dish was allowed to stand at room temperature for 30 minutes while shaking in a shaded state with aluminum foil and 95 μl of culture contained in the 96-well culture dish was then transferred to a white 96-well examining dish. Next, the amount of luminescence of the culture contained in the 96-well examining dish (the amount of luminescence has a correlation with the cell survival rate) was measured by EnVision Multilabel Reader (PerkinElmer).

[3] = test system: human retinal pigment epithelial cells
Description: The relationship between the light irradiation dose and the above-described PIF value (that is, a value obtained by dividing the cytotoxicity IC50 value in human retinal pigment epithelial cells exposed to a test substance (a (shaded) control for non-light irradiation) by the cytotoxicity IC50 value in human retinal pigment epithelial cells cultured under simulated solar light irradiation within 24 hours after the onset of contact with the test substance) was examined using chlorpromazine (CPZ) used as a positive control in the OECD guideline. Light irradiation was set to each condition of a light of 2.09 mW/cm^2 (measured with UVR300 manufactured by TOPCON CORPORATION equipped with photoreceiving part UD360) for 15 minutes (1.87 J/cm^2), 20 minutes (2.50 J/cm^2), 25 minutes (3.13 J/cm^2), 30 minutes (3.75 J/cm^2), 40 minutes (5.00 J/cm^2) and 60 minutes (7.51 J/cm^2), and the phototoxicity test method was carried out according to the methods described in Example 3 and Example 4. The phototoxicity test method in shaded conditions as a control for non-light irradiation was carried out in the same manner as in the phototoxicity test method under light irradiation except that light was blocked.
The number of viable cells of the human retinal pigment epithelial cells was checked for 15 minutes (1.87 J/cm^2), 20 minutes (2.50 J/cm^2), 25 minutes (3.13 J/cm^2), 30 minutes (3.75 J/cm^2), 40 minutes (5.00 J/cm^2) and 60 minutes (7.51 J/cm^2).

[4] = in vitro; conditions: human, IC50 (50% inhibitory concentration, cytotoxicity)
Description: as §1, §2, §3, §4, §5, §6, §7

[5] = in vitro; conditions: mouse, IC50 (50% inhibitory concentration, cytotoxicity)
Description: as §8, §9, §10, §11, §4, §12, §13, §14, §15, §16

[6] = test system: yeast-RBC; conditions: 4 facilities, validation study report Aug. 27, 2004; cited from earlier work
[7] = shaded (control for non-light irradiation)
[8] = shaded with aluminum foil (control for non-light irradiation), 40 minutes, then cultivation overnight
[9] = simulated solar light irradiation 40 minutes, about 5 J/cm^2
[10] = simulated solar light irradiation 40 minutes, about 5 J/cm^2 at 360 nm, then cultivation overnight

Structure (SMILES) | photocytotoxicity determination by the phototoxicity test method of the present invention [1] | PIF value (Photo Irritation Facor value) = IC50 shaded / IC50 under light irradiation ([1]; human, 40 min) | photocytotoxicity determination by the comparative phototoxicity test method [2] | PIF value (Photo Irritation Facor value) = IC50 shaded / IC50 under light irradiation ([2]; mouse, 40 min) | IC50 at 40 min [4] [µg/mL] | IC50 (50% inhibitory concentration, cytotoxicity) ([1]; human, 40 min) [µg/mL] | IC50 (50% inhibitory concentration, cytotoxicity) ([2]; mouse, 40 min) [µg/mL] | result in the yeast-RBC assay [6] | photocytotoxicity determination by the phototoxicity test method of the present invention ([1]; evaluation based on PIF value) | photocytotoxicity determination by the comparative phototoxicity test method ([2]; evaluation based on PIF value) | also measured
CN(C)CCCN1c2ccccc2Sc2ccc(Cl)cc21 [Chlorpromazine (CPZ), chlorpromazine] | photocytotoxicity-positive | 6.5 | photocytotoxicity-positive | 23.7 |  |  |  |  |  |  | PIF ([3]; 15 min): 1.70; PIF ([3]; 20 min): 1.72; PIF ([3]; 25 min): 3.35; light irradiation dose by which the number of viable cells under light irradiation significantly decreases relative to light blocked conditions ([3]; 25 min, 10 μg/ml): ≥ 3.13 J/cm^2; PIF ([3]; 30 min): 4.57; PIF ([3]; 40 min): 6.53; PIF ([3]; 60 min): 10.94
[H]/N=C(\N/C(=N/[H])NCCCCCCNC(=N)NC(=N)Nc1ccc(Cl)cc1)Nc1ccc(Cl)cc1 [Chlorhexidine, chlorhexidine] | photocytotoxicity-negative | 0.98 | photocytotoxicity-negative | 1.4 | 42.7 (≈ 84.5 µM) | 43.7 (≈ 86.5 µM) | 10.1 (≈ 20 µM) | false positive |  |  | IC50 at 40 min [5]: 13.7 µg/mL (≈ 27.1 µM)
C=C[C@H]1C[N@@]2CC[C@H]1C[C@H]2[C@H](O)c1ccnc2ccc(OC)cc12 [Quinine, quinine] |  | 1.7 |  | 128.8 | 147 (≈ 453 µM) | 88.9 (≈ 274 µM) | 2.3 (≈ 7.09 µM) |  | photocytotoxicity-negative | photocytotoxicity-positive | IC50 ([2]; mouse, 40 min): 292 µg/mL (≈ 901 µM)
Oc1c(Cl)cc(Cl)cc1Sc1cc(Cl)cc(Cl)c1O [Bithionol, bithionol] | photocytotoxicity-negative |  | photocytotoxicity-positive | 12.4 | > 10 | > 10 |  | false positive |  |  | concentration at or below which cytotoxicity was not observed ([1]; human, 40 min): ≤ 10 µg/mL
CC1(C)S[C@@H]2[C@H](NC(=O)Cc3ccccc3)C(=O)N2[C@H]1C(=O)O [Penicillin G, penicillin G] |  |  |  |  |  |  |  |  | photocytotoxicity-negative | photocytotoxicity-negative | PIF value (Photo Irritation Facor value) = IC50 shaded / IC50 under light irradiation ([1]; from Example 3 and Example 4, greater than 5 = phototoxicity-positive): Photocytotoxicity is not Confirmed; concentration at or below which cytotoxicity was not observed [1, 7]: ≤ 1000 µg/mL; IC50 (50% inhibitory concentration, cytotoxicity) [1, 8]: > 1000 µg/mL; concentration at or below which cytotoxicity was not observed [1, 9]: ≤ 1000 µg/mL; IC50 (50% inhibitory concentration, cytotoxicity) [1, 10]: > 1000 µg/mL; PIF value (Photo Irritation Facor value) = IC50 shaded / IC50 under light irradiation ([2]; from Comparative Example 1 and Comparative Example 2, greater than 5 = phototoxicity-positive): Photocytotoxicity is not Confirmed; concentration at or below which cytotoxicity was not observed [2, 7]: ≤ 1000 µg/mL; IC50 (50% inhibitory concentration, cytotoxicity) [2, 8]: > 1000 µg/mL; concentration at or below which cytotoxicity was not observed [2, 9]: ≤ 1000 µg/mL; IC50 (50% inhibitory concentration, cytotoxicity) [2, 10]: > 1000 µg/mL
